Where two headings read alike, the source gives them in different places.
Experiments:
[1] = molecular target: D5R (Homo sapiens, UniProt P21918); assay: D5R radioligand binding assay; conditions: triplicate; na = not active (<50% inhibition in a primary assay)
[2] = molecular target: 5-HT2AR (Homo sapiens, UniProt P28223); assay: 5-HT2AR radioligand binding assay
[3] = molecular target: 5-HT6R (Homo sapiens, UniProt P50406); assay: 5-HT6R radioligand binding assay; conditions: [3H]LSD radioligand; triplicate; na = not active (<50% inhibition in a primary assay)
Chain of 5-HT6R (P50406 whole entry): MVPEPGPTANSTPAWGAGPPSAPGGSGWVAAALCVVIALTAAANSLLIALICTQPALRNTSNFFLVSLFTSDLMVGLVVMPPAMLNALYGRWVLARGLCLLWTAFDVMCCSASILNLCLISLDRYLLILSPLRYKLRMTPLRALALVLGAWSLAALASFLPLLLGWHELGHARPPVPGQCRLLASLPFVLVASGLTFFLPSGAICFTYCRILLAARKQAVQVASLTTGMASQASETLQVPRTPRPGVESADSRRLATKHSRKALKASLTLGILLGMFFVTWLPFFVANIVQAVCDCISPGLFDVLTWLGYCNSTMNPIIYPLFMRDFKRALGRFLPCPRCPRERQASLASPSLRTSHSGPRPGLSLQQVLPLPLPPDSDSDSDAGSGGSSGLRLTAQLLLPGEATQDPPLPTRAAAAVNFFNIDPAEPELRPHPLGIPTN

[4] = molecular target: 5-HT7AR (Homo sapiens, UniProt P34969); assay: 5-HT7AR radioligand binding assay
Chain of 5-HT7AR (P34969 1-445 isoform P34969-2): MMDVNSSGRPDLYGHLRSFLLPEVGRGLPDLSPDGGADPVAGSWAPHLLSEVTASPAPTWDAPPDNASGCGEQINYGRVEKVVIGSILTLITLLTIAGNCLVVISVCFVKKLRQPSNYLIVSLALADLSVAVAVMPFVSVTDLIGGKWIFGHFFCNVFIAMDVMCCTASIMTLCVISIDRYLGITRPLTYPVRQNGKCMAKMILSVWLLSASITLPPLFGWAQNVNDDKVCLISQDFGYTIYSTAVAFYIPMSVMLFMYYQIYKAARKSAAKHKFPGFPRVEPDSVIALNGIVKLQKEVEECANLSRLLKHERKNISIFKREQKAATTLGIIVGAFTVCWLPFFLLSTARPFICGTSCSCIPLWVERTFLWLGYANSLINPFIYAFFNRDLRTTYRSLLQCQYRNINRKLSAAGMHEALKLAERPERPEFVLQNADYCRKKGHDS

[5] = [3H]Ketanserin radioligand, triplicate, na = not active (<50% inhibition in a primary assay)

Chain of 5-HT2AR (P28223 whole entry): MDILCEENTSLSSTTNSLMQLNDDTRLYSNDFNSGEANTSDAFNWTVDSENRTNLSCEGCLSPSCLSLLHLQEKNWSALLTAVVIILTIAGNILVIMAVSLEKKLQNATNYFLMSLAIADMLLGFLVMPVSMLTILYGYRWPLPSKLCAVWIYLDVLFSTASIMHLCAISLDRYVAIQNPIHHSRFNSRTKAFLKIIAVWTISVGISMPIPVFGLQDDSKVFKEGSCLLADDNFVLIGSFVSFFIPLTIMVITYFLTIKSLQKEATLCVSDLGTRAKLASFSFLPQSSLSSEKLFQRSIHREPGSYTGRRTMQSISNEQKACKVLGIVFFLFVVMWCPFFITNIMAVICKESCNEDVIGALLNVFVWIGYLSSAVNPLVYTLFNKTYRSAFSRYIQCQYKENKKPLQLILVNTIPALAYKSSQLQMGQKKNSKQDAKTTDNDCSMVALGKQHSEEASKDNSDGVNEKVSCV
Chain of D5R (P21918 whole entry): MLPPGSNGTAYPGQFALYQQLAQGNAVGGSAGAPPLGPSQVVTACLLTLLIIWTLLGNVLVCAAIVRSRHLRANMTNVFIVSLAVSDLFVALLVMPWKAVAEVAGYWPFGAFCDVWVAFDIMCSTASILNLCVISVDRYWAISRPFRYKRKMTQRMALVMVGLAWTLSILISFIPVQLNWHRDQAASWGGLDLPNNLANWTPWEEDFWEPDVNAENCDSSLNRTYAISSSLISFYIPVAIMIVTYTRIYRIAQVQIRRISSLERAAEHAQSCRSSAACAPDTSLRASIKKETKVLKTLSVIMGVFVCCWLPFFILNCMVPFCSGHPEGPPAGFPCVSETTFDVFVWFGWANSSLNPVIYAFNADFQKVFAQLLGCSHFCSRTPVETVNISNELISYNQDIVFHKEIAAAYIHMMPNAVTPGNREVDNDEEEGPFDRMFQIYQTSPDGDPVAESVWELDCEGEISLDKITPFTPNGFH

SMILES	Ki D5R [1]	Ki 5-HT2AR [2, 5]	further results
CN1CCc2cccc3c2C1Cc1ccc(NC(N)=O)cc1-3 (centres unmarked) [Compound 29, 1-(6-methyl-5,6,6a,7-tetrahydro-4H-dibenzo[de,g]quinolin-10-yl)urea]	lacked affinity	–	–
CN(C)c1ccc2c(c1)-c1cccc3c1C(C2)N(C)CC3 (centres unmarked) [Compound 31, N,N,6-trimethyl-5,6,6a,7-tetrahydro-4H-dibenzo[de,g]quinolin-10-amine]	–	–	Ki 5-HT2AR [2]: fairly weak affinity; Ki 5-HT6R [3]: fairly weak affinity
COc1cc2c3c(c1OC)-c1cc(NC(N)=O)ccc1CC3N(C)CC2 (centres unmarked) [Compound 19, 1-(1,2-dimethoxy-6-methyl-5,6,6a,7-tetrahydro-4H-dibenzo[de,g]quinolin-10-yl)urea]	–	lack of affinity	–
COc1cc2c3c(c1OC)-c1cc(NS(C)(=O)=O)ccc1CC3N(C)CC2 (centres unmarked) [Compound 15, N-(1,2-dimethoxy-6-methyl-5,6,6a,7-tetrahydro-4H-dibenzo[de,g]quinolin-10-yl)methanesulfonamide]	–	lack of affinity	–
CCCN1CCc2cccc3c2C1Cc1ccc(NC(C)=O)cc1-3 (centres unmarked) [Compound 25, N-(6-propyl-5,6,6a,7-tetrahydro-4H-dibenzo[de,g]quinolin-10-yl)acetamide]	–	no affinity	Ki 5-HT6R [3]: no affinity; Ki 5-HT7AR ([4]; [3H]LSD radioligand, triplicate, na = not active (<50% inhibition in a primary assay)): no affinity

Second part, led by results:

Ki D5R [1]	Ki 5-HT2AR [2, 5]	SMILES	further results
no affinity	–	CN1CCc2cccc3c2C1Cc1ccc2nc(N)sc2c1-3 (centres unmarked) [Compound 33a, 7-methyl-6a,7,8,9-tetrahydro-6H-benzo[de]thiazolo[4’,5’:5,6]benzo[1,2-g]quinolin-2-amine]	selectivity for 5-HT7AR versus 5-HT1AR ([4]; ratio of binding affinities): approximately 19 fold
lack of affinity	–	CCCN1CCc2cccc3c2C1Cc1cc2sc(N)nc2cc1-3 (centres unmarked) [Compound 34b, 6-propyl-5,6,6a,7-tetrahydro-4H-benzo[de]thiazolo[5’,4’:4,5]benzo[1,2-g]quinolin-10-amine]	–

Reference: article PMC7340851 (Bioorganic & medicinal chemistry, 2020)
